For experiment [1], the system named is PBs. Briefly: Mitochondria/Caspase 3-driven apoptosis and viability of PBs. Type of experiment: cell-based, human. An excerpt:
Mitochondrial-driven cell death is activated once the mitochondria lose the ability to maintain the inner membrane potential, resulting in the release of proapoptotic proteins into the cytosol. Commitment towards PBs is sustained by an extensive reconfiguration of the epigenetic landscape and of gene expression patterns, both showing that the most prominent function involves cell death and survival (Caron et al., 2015). […] We then investigated the different cell subsets generated through the differentiation model at the protein level for factors involved in apoptosis triggered by mitochondria (data not shown). The PBs compared to all other subsets increased the expression of pBAD and XIAP, both proteins counteract the apoptotic pathway and were described in PIM2-induced survival effect (data not shown) (Fox, 2003; Macdonald et al., 2006; Yan et al., 2003). In accordance with this finding and despite a strong increase in procaspase 3 protein (32 kDa size), PBs decrease the autocatalytic activity of Caspase 3 and therefore the production of p19/p17 apoptosis executors as highlighted by the low levels of cleaved PARP (data not shown) (Ponder and Boise, 2019). […] In addition, we found in P2/CD23+ cells a complete degradation of PARP which illustrate the fact that the apoptosis process is consubstantially associated with the B cell terminal differentiation if cells are not otherwise protected (data not shown).
We then inhibited PIM2 which led to an intense activation of Caspase 3 and a decrease of viability of PBs. The latter was rescued by the Caspase 3 inhibitor Q-DEVD-OPH (data not shown).
(§1) The differentiation of immature monocytes is associated with a relocalization of nuclear p21^Cip1/WAF1 to the cytoplasm where the protein participates to apoptosis blockage (Asada, 1999). In addition, Suzuki et al. ascribed the formation of a Procaspase 3/p21^Cip1/WAF1 complex in the context of resistance to Fas-mediated cell death owing to the phosphorylation of p21 by protein kinase A (Suzuki et al., 2000). We wanted therefore to explore whether p21^Cip1/WAF1 may bind Procaspase 3 and developed to this end a FRET approach which detected a signal of energy transfer compatible with such physical interaction. […] We then confirmed the binding between p21^Cip1/WAF1 and Caspase 3 in XG21 cells and in PBs by IP (data not shown). Finally, to confirm the anti-apoptotic role of cytoplasmic p21^Cip1/WAF1 in PBs we inhibited p21^Cip1/WAF1 expression by a siRNA targeting CDKN1A in in vitro D4 B cells (data not shown) and found an activation of the execution of apoptosis characterized by the detection of the p17-fragment cleavage of caspase 3 in parallel to the cleavage of PARP (data not shown) and similar results were found in XG21 cells (data not shown). […] The role of PIM2 is to stabilize p21^Cip1/WAF1 protein in the cytoplasm allowing therefore the formation a multiprotein complex which inhibits Caspase 3 full activation (data not shown).

A further experiment concerns MM cell lines. Briefly: PIM2 protein expression and drug effects in MM cell lines. The note with it: western blot, after proteasome inhibition. Type of experiment: cell-based, human. An excerpt:
Using data of the Dependency Map (DepMap) portal (https://depmap.org/portal/), we evaluated mRNA expression of PIM2 in silico across >700 different malignant cell lines, including 20 MM cell lines. […] This was specific to PIM2, as PIM1 expression is not overexpress in MM cell lines (data not shown). We confirm the high expression of PIM2 protein in eight MM lines, which correlates well with RNA expression, noting however a large heterogeneity of expression (data not shown) Also, using CRISPR screening of DepMap data, dependency scores of PIM2 underline their specific importance for MM cell survival compared to all cell lines tested, and as compared to PIM1 data not shown). To evaluate potential correlations between PIM2 expression and clinicals outcomes, we analyzed TT2 cohort of the university of Arkansas and within the myeloma patient molecular subgroups. […] Our analysis of the CoMMpass cohort also as PIM2 expression above the cutoff (determined by MaxStat method) in the large dataset correlated with shorter overall survival (P=0.000573) (data not shown). […] These last result fit well with the fact that PIM2 protein expression increase after proteasome inhibition with drug as carfilzomib as show by western blot in MM cell lines (data not shown), leading to an increase of their prosurvival activity as shown described (Adam et al., 2015).
For orientation: Immunoblotting shows a protein as a band on a membrane.

Experiment [2] concerns activated B cells diverted from the PB commitment. Put plainly: Apoptosis of activated B cells diverted from the PB commitment at D6. It counts as cell-based, human. Particulars: D6, original in vitro model. An excerpt:
Mitochondrial-driven cell death is activated once the mitochondria lose the ability to maintain the inner membrane potential, resulting in the release of proapoptotic proteins into the cytosol. Commitment towards PBs is sustained by an extensive reconfiguration of the epigenetic landscape and of gene expression patterns, both showing that the most prominent function involves cell death and survival (Caron et al., 2015). […] We then investigated the different cell subsets generated through the differentiation model at the protein level for factors involved in apoptosis triggered by mitochondria (data not shown). The PBs compared to all other subsets increased the expression of pBAD and XIAP, both proteins counteract the apoptotic pathway and were described in PIM2-induced survival effect (data not shown) (Fox, 2003; Macdonald et al., 2006; Yan et al., 2003). In accordance with this finding and despite a strong increase in procaspase 3 protein (32 kDa size), PBs decrease the autocatalytic activity of Caspase 3 and therefore the production of p19/p17 apoptosis executors as highlighted by the low levels of cleaved PARP (data not shown) (Ponder and Boise, 2019). […]

The test system of another experiment is MM. Put plainly: Combinations of increasing drug-concentration of PIM inhibitor and MCL1 inhibitor. Type of experiment: cell-based. Particulars: increasing concentrations of both drugs.
The test system of the next experiment is CDC25A. Briefly: CDC25A protein in PBs by western blot. Type of experiment: cell-based, human. An excerpt: (§2) Since PIM2 acts at multiple cellular levels, we wanted to investigate how this kinase impacts this step of the differentiation. […] To explore this hypothesis, we investigated the G1/S transition of the cell cycle by using the multiple myeloma-derived cell line XG21 which presents an IL-6/STAT3-dependent PIM2 expression and proliferation (data not shown). To this end, we established a double thymidine block to arrest cells in G1-phase, and then released thymidine before subsequent cell cycle analysis. […] In presence of PIM2 blockade regardless of the type of inhibition, cells remained largely arrested in G1 phase until 16 h before starting to die (data not shown). The transition of G1 to S phase of the cell cycle requires the phosphatase CDC25A. We found a significant increase of CDC25A gene expression in PBs compared to CD23+ aBC and chemical inhibition of the phosphatase led to a dramatic decrease of the number of PBs in S phase (data not shown). We then wondered whether PIM2 has an effect on CDC25A as described for PIM1 which increased the catalytic activity after its binding to the phosphatase (Mochizuki et al., 1999). By western blot we detected CDC25A protein in PBs which disappeared in presence of PIMi (data not shown). PIM2 blockade led also to the downregulation of CDC25A and MKI67 gene expression (data not shown).

Another experiment relates to ePCs. Put plainly: Apoptosis markers in early plasma cells (ePCs) by western blot. Type of experiment: cell-based, human. An excerpt:
Plasma cell maturation is a continuum that spans from PBs to fully mature PCs corresponding to long-lived PCs such as those residing in the bone marrow (BM) PC niche where their survival depends on various extrinsic factors. […] We then explored PIM2 expression at the protein level in CD138^+ or BCMA^+ PCs on BM biopsies from patients free from malignant hemopathies obtained from the Pathology department of our institution (F. Llamas-Gutierrez). Single staining was firstly tested by chromogenic immunohistochemistry (CIH) or immunofluorescence (IF) on paraffin-embedded tissue sections followed by multiple staining by IF. Both, CD138 and BCMA staining allowed to identify PCs with, in some areas, high number of positive cells that possibly were close from CD41-positive megakaryocytes and enriched for IL-6 expression (data not shown). In addition, all observed BM PCs expressed PIM2 with a strong intensity (data not shown). To determine the regulation and functional contribution of PIM2 in mature PCs, we produced CD38^hi/CD138^+ PCs by leaving D7 to D10 generated PBs in culture media containing IL-2, IL-10, IL-6 and IFN-alpha (data not shown). Under this condition, the number of CD138^+ cells increased progressively while the number of cells in S-phase of the cell cycle decreased gradually with, respectively, 60.3±8.1% and 3.5±0.3% at D10 (data not shown). In parallel, cells decreased and increased, respectively, the expression of CDC25A and CDKN1B with for the latter, p27^Kip1 protein exclusively detectable in the nucleus at D10 as expected for fully differentiated cells arrested in the cell cycle (data not shown). […] In addition, in these cells, compared to PBs, we observed an increase of PIM2 gene expression as well as its protein level (data not shown).
We then investigated the other factors described above at the protein levels and detected by western blot in ePCs compared to PBs—and besides p27^Kip1 and PIM2—a significant elevation of Caspase 3 and p21^Cip1/WAF1 protein expression (data not shown).

Experiment [3] has as its system p21^Cip1/WAF1. Briefly: CDKN1A gene and p21^Cip1/WAF1 protein expression in PBs. Type of experiment: cell-based, human. Particulars: PBs treated conjointly by MG-132 and PIMi. An excerpt: (§3) Like p27^Kip1, p21^Cip1/WAF1 is a tight-binding inhibitor of CDKs and inhibits cell cycle entry into S phase (Elledge et al., 1996). Plasmablast commitment leads to a significant increase of the CDKN1A gene, which encodes p21^Cip1/WAF1, and this independently to the expression of TP53 (data not shown). […] We then wondered whether PIM2 could modify p21^Cip1/WAF1 expression. […] To address this scenario, we developed endogenous protein immunoprecipitation (IP) and found in generated PBs and XG21 cell line as well that PIM2, p21^Cip1/WAF1 and HSP90β form a cytoplasmic multiprotein complex (data not shown).

Experiment [4] deals with PBs. Briefly: Number of PBs in S-phase of the cell cycle. Type of experiment: cell-based, human.
From the text: as §2

In experiment [5] the test system is p21^Cip1/WAF1. Briefly: p21^Cip1/WAF1 protein expression in XG21 cells. Type of experiment: cell-based, human. Particulars: XG21 cells treated conjointly by MG-132 and PIMi.
From the text: as §3

In experiment [6] the test system is p21^Cip1/WAF1/Procaspase 3 complex. Put plainly: FRET between p21^Cip1/WAF1 and Procaspase 3. It counts as cell-based. Particulars: added to the cell culture.
From the text: as §1

Another experiment relates to XG21. Briefly: Caspase 3 activation in XG21. It counts as cell-based, human.
From the text: as §1

As for Q-DEVD-OPH, the “viability of PBs after PIM2 inhibition” value in the experiment on PBs [1] (Caspase 3 inhibitor added to PIM2-inhibited PBs) is listed as “rescued”. Moreover, in the experiment on PBs [1] (Caspase 3 inhibitor added to UC2288-treated cells), the “cell viability after UC2288” value is “restores cell viability”.

Consider `CC(C)C[C@H](NC(=O)[C@H](CCc1ccccc1)NC(=O)CN1CCOCC1)C(=O)N[C@@H](Cc1ccccc1)C(=O)N[C@@H](CC(C)C)C(=O)[C@@]1(C)CO1` [carfilzomib], for which the PIM2 protein expression entry in the experiment with MM cell lines is “increase”.

Consider `CC(C)[C@H](NC(=O)c1ccc2ccccc2n1)C(=O)N[C@@H](CC(=O)O)C(=O)COc1c(F)cccc1F` [QVD-OPH], for which, in experiment [2], the rescue from apoptosis entry is on record as “rescued from apoptosis”.

With `N[C@@H]1CCCN(c2c(/C=C3\SC(=O)NC3=O)cccc2-c2ccccc2)C1` [PIMi, AZD1208], the “synergy of the combination AZD1208 and AZD5991” value with MM is on record as “hard synergy”. In the experiment with PBs [1] (PBs), the “cleaved PARP protein” value is reported as “production of cleaved PARP protein”; the mitochondrial depolarization result is reported as “strong mitochondrial depolarization”; the “pBAD and XIAP protein” value was “decrease of pBAD and XIAP”. The “CDC25A protein in PBs” value with CDC25A is “disappeared”. Moreover, in the experiment on ePCs, the “Caspase 3 activation” value is reported as “activation of Caspase 3 with production of the catalytic active p17 fragment”, the XIAP protein entry is reported as “decrease of XIAP protein”, the “cleaved-Caspase 9 fragment” value is given as “increase of cleaved-Caspase 9 fragment” and the “p21^Cip1/WAF1 expression” value is reported as “decrease of p21^Cip1/WAF1 expression”. Further, the “p21^Cip1/WAF1 expression” value in the experiment with p21^Cip1/WAF1 [3] is given as “maintained their p21^Cip1/WAF1 expression but in a poly-ubiquitinylated form”. Besides, the “number of PBs in S-phase” value in the experiment on PBs [4] was “decreased drastically, in a dose-dependent manner”. The “p21^Cip1/WAF1 expression” value with p21^Cip1/WAF1 [5] was “maintained their p21^Cip1/WAF1 expression but in a poly-ubiquitinylated form”. Also, the “FRET signal of energy transfer p21^Cip1/WAF1 / Procaspase 3” value in experiment [6] is recorded as “abolished the signal”.

Regarding `O=C(Nc1ccc(Cl)c(C(F)(F)F)c1)NC1CCC(Oc2ccc(C(F)(F)F)cn2)CC1` (centres unmarked) [UC2288], the “Caspase 3 activation” value in the experiment on PBs [1] (PBs) and with XG21 was “dose-dependent increase of Caspase 3 activation” each time. For the same compound, the apoptosis induction entry with PBs [1] (by inhibiting p21^Cip1/WAF1 protein expression) is “induced a Caspase 3-mediated apoptosis”.
